# Reference: patent publication US6737383B1, “Herbicidal oxadiazolidines” (priority 1999, dated 2004)
# Legend:
# winter wheat [1] = test: Test E winter wheat; assay type: in vivo, Triticum aestivum; conditions: Preemergence
# crabgrass = test: Test B pre/postemergence crabgrass; assay type: in vivo, Digitaria sanguinalis
# Outline: (§1)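 Herbicidal effect was estimated by eye on a ten-point control scale after plants spent twelve to sixteen days in a greenhouse following soil or foliar treatment. Foliar sprays targeted plants at one to four leaves; all doses were formulated in a non-phytotoxic solvent with surfactant.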
# blackgrass = test: Test E blackgrass; assay type: in vivo, Alopecurus myosuroides; conditions: Preemergence
# winter wheat [2] = test: Test E winter wheat; assay type: in vivo, Triticum aestivum; conditions: Postemergence
# Outline: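 Compound formulated with surfactant in a non-phytotoxic solvent (postemergence: young 1- to 4-leaf plants); held in greenhouse approx. 21–28 days; visual assessment against untreated plants.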
# Italian ryegrass = test: Test E Italian ryegrass; assay type: in vivo, Lolium multiflorum; conditions: Preemergence
# wheat = test: Test B pre/postemergence wheat; assay type: in vivo, Triticum aestivum
# Outline: as §1
# cocklebur = test: Test B pre/postemergence cocklebur; assay type: in vivo, Xanthium strumarium
# Outline: as §1
# wild oat [3] = test: Test E wild oat; assay type: in vivo, Avena fatua; conditions: Preemergence; Rate 1000 g/ha; 0 to 100 scale where 0 is no effect and 100 is complete control
# winter barley = test: Test E winter barley; assay type: in vivo, Hordeum vulgare; conditions: Preemergence
# wild oat [4] = test: Test B pre/postemergence wild oat; assay type: in vivo, Avena fatua
# Outline: as §1
# green foxtail = test: Test E green foxtail; assay type: in vivo, Setaria viridis; conditions: Preemergence
# [5] = Rate 500 g/ha, 0 to 100 scale where 0 is no effect and 100 is complete control
# [6] = Rate 1000 g/ha, 0 to 100 scale where 0 is no effect and 100 is complete control
# [7] = Postemergence, Rate 62 g/ha, scale 0 to 10, 0 is no effect, 10 is complete control
# [8] = Postemergence, Rate 250 g/ha, scale 0 to 10, 0 no effect, 10 complete control
# [9] = Preemergence, Rate 62 g/ha, scale 0 to 10 (0 no effect, 10 complete control)
# [10] = Preemergence, Rate 125 g/ha, scale 0 to 10 (0 no effect, 10 complete control)
# [11] = Preemergence, Rate 250 g/ha, scale of 0 to 10 where 0 is no effect and 10 is complete control
# [12] = Preemergence, Rate 500 g/ha, scale 0 (no effect) to 10 (complete control)
# [13] = Rate 125 g/ha, Postemergence, scale 0 to 10, 0 no effect, 10 complete control
# [14] = Rate 500 g/ha, Postemergence, scale 0 to 10, 0 no effect, 10 complete control
# [15] = Rate 250 g/ha, 0 to 100 scale (0 no effect, 100 complete control)
# [16] = Rate 1000 g/ha, 0 to 100 scale, 0 is no effect and 100 is complete control
# [17] = Postemergence, Rate 125 g/ha, scale of 0 to 10 where 0 is no effect and 10 is complete control
# [18] = Postemergence, Rate 250 g/ha, scale of 0 to 10, 0 is no effect, 10 is complete control
# [19] = Preemergence, Rate 250 g/ha, scale 0 to 10 (0 no effect, 10 complete control)
# [20] = Preemergence, Rate 500 g/ha, scale of 0 to 10 where 0 is no effect and 10 is complete control
# [21] = Preemergence, Rate 125 g/ha, scale of 0 to 10 where 0 is no effect and 10 is complete control
# [22] = Postemergence, Rate 500 g/ha, scale of 0 to 10 where 0 is no effect and 10 is complete control
# [23] = Preemergence, Rate 62 g/ha, scale of 0 to 10 where 0 is no effect and 10 is complete control
# [24] = Rate 500 g/ha, Postemergence, scale 0 to 10, 0 is no effect, 10 is complete control
compound,measurement,setting,value
Cc1nn(C)c(C)c1-n1c(=O)on(C(=O)N(c2ccc(F)cc2)C(C)C)c1=O [Compound 75],"Plant response rating, Wheat (winter)","winter wheat [1]; Rate 250 g/ha, 0 to 100 scale",10
same,"Plant response rating, Wheat (winter)",winter wheat [1]; [5],20
same,"Plant response rating, Wheat (winter)",winter wheat [1]; [6],65
same,Crabgrass plant response rating,crabgrass; [7],0
same,Crabgrass plant response rating,crabgrass; [8],9
same,Crabgrass plant response rating,crabgrass; [9],3
same,"Plant response rating, Crabgrass",crabgrass; [10],8
same,"Plant response rating, Crabgrass",crabgrass; [11],10
same,Crabgrass plant response rating,crabgrass; [12],10
same,Crabgrass plant response rating,crabgrass; [13],2
same,Crabgrass plant response rating,crabgrass; [14],9
same,"Plant response rating, Blackgrass","blackgrass; Rate 250 g/ha, 0 to 100 scale",20
same,"Plant response rating, Blackgrass",blackgrass; [5],40
same,"Plant response rating, Blackgrass",blackgrass; [6],85
same,"Plant response rating, Wheat (winter)",winter wheat [2]; [15],60
same,"Plant response rating, Wheat (winter)",winter wheat [2]; [16],70
same,"Plant response rating, Wheat (winter)","winter wheat [2]; Rate 500 g/ha, 0 to 100 scale, 0 no effect, 100 complete control",75
same,"Plant response rating, I. Ryegrass","Italian ryegrass; Rate 250 g/ha, 0 to 100 scale",20
same,"Plant response rating, I. Ryegrass",Italian ryegrass; [5],30
same,"Plant response rating, I. Ryegrass",Italian ryegrass; [6],50
same,Wheat plant response rating,wheat; [7],0
same,Wheat plant response rating,wheat; [8],2
same,Wheat plant response rating,wheat; [9],0
same,"Plant response rating, Wheat",wheat; [10],0
same,"Plant response rating, Wheat",wheat; [11],0
same,Wheat plant response rating,wheat; [12],3
same,Wheat plant response rating,wheat; [13],0
same,Wheat plant response rating,wheat; [14],4
same,Cocklebur plant response rating,cocklebur; [7],0
same,Cocklebur plant response rating,cocklebur; [8],1
same,Cocklebur plant response rating,cocklebur; [9],0
same,"Plant response rating, Cocklebur",cocklebur; [10],0
same,"Plant response rating, Cocklebur",cocklebur; [11],0
same,Cocklebur plant response rating,cocklebur; [12],0
same,Cocklebur plant response rating,cocklebur; [13],0
same,Cocklebur plant response rating,cocklebur; [14],1
same,"Plant response rating, Wild oat",wild oat [3],10
same,"Plant response rating, Barley (winter)","winter barley; Rate 250 g/ha, 0 to 100 scale",10
same,"Plant response rating, Barley (winter)",winter barley; [5],20
same,"Plant response rating, Barley (winter)",winter barley; [6],60
same,Wild oats plant response rating,wild oat [4]; [7],0
same,Wild oats plant response rating,wild oat [4]; [8],0
same,Wild oats plant response rating,wild oat [4]; [9],0
same,"Plant response rating, Wild oats",wild oat [4]; [10],0
same,"Plant response rating, Wild oats",wild oat [4]; [11],8
same,Wild oats plant response rating,wild oat [4]; [12],8
same,Wild oats plant response rating,wild oat [4]; [13],0
same,Wild oats plant response rating,wild oat [4]; [14],2
same,"Plant response rating, Green foxtail","green foxtail; Rate 250 g/ha, 0 to 100 scale",60
same,"Plant response rating, Green foxtail",green foxtail; [5],60
same,"Plant response rating, Green foxtail",green foxtail; [6],60
Cc1ccccc1Cn1c(=O)on(C(=O)N(c2ccc(F)cc2)C(C)C)c1=O [Compound 88],"Plant response rating, Wheat (winter)","winter wheat [1]; Rate 250 g/ha, 0 to 100 scale",0
same,"Plant response rating, Wheat (winter)",winter wheat [1]; [6],10
same,Crabgrass plant response rating,crabgrass; [7],0
same,Crabgrass plant response rating,crabgrass; [17],0
same,Crabgrass plant response rating,crabgrass; [8],9
same,Crabgrass plant response rating,crabgrass; [9],5
same,"Plant response rating, Crabgrass",crabgrass; [10],7
same,"Plant response rating, Crabgrass",crabgrass; [11],10
same,Crabgrass plant response rating,crabgrass; [12],10
same,Crabgrass plant response rating,crabgrass; [14],9
same,"Plant response rating, Blackgrass","blackgrass; Rate 250 g/ha, 0 to 100 scale",50
same,"Plant response rating, Blackgrass",blackgrass; [6],50
same,"Plant response rating, Wheat (winter)",winter wheat [2]; [15],0
same,"Plant response rating, Wheat (winter)",winter wheat [2]; [16],10
same,"Plant response rating, I. Ryegrass","Italian ryegrass; Rate 250 g/ha, 0 to 100 scale",10
same,"Plant response rating, I. Ryegrass",Italian ryegrass; [6],50
same,Wheat plant response rating,wheat; [7],0
same,Wheat plant response rating,wheat; [17],0
same,Wheat plant response rating,wheat; [8],0
same,Wheat plant response rating,wheat; [9],0
same,"Plant response rating, Wheat",wheat; [10],0
same,"Plant response rating, Wheat",wheat; [11],0
same,Wheat plant response rating,wheat; [12],0
same,Wheat plant response rating,wheat; [14],0
same,Cocklebur plant response rating,cocklebur; [7],0
same,Cocklebur plant response rating,cocklebur; [17],0
same,Cocklebur plant response rating,cocklebur; [8],1
same,Cocklebur plant response rating,cocklebur; [9],0
same,"Plant response rating, Cocklebur",cocklebur; [10],0
same,"Plant response rating, Cocklebur",cocklebur; [11],0
same,Cocklebur plant response rating,cocklebur; [12],0
same,Cocklebur plant response rating,cocklebur; [14],5
same,"Plant response rating, Wild oat",wild oat [3],20
same,"Plant response rating, Barley (winter)","winter barley; Rate 250 g/ha, 0 to 100 scale",0
same,"Plant response rating, Barley (winter)",winter barley; [6],0
same,Wild oats plant response rating,wild oat [4]; [7],0
same,Wild oats plant response rating,wild oat [4]; [17],0
same,Wild oats plant response rating,wild oat [4]; [8],0
same,Wild oats plant response rating,wild oat [4]; [9],0
same,"Plant response rating, Wild oats",wild oat [4]; [10],2
same,"Plant response rating, Wild oats",wild oat [4]; [11],2
same,Wild oats plant response rating,wild oat [4]; [12],5
same,Wild oats plant response rating,wild oat [4]; [14],0
same,"Plant response rating, Green foxtail","green foxtail; Rate 250 g/ha, 0 to 100 scale",60
same,"Plant response rating, Green foxtail",green foxtail; [6],85
CC(C)N(C(=O)n1oc(=O)n(CC2CCCCO2)c1=O)c1ccc(F)cc1 (stereo not drawn) [Compound 624],"Plant response rating, Crabgrass",crabgrass; [7],6
same,"Plant response rating, Crabgrass",crabgrass; [17],7
same,Crabgrass plant response rating,crabgrass; [18],7
same,Crabgrass plant response rating,crabgrass; [9],7
same,"Plant response rating, Crabgrass",crabgrass; [19],9
same,"Plant response rating, Crabgrass",crabgrass; [20],9
same,"Plant response rating, Wheat",wheat; [7],0
same,"Plant response rating, Wheat",wheat; [17],0
same,Wheat plant response rating,wheat; [18],0
same,Wheat plant response rating,wheat; [9],0
same,Wheat plant response rating,wheat; [21],0
same,"Plant response rating, Wheat",wheat; [19],6
same,"Plant response rating, Wheat",wheat; [20],7
same,"Plant response rating, Cocklebur",cocklebur; [7],0
same,"Plant response rating, Cocklebur",cocklebur; [17],0
same,Cocklebur plant response rating,cocklebur; [18],2
same,"Plant response rating, Cocklebur",cocklebur; [22],6
same,Cocklebur plant response rating,cocklebur; [9],0
same,Cocklebur plant response rating,cocklebur; [21],0
same,"Plant response rating, Cocklebur",cocklebur; [19],0
same,"Plant response rating, Cocklebur",cocklebur; [20],0
same,"Plant response rating, Wild oats",wild oat [4]; [7],0
same,"Plant response rating, Wild oats",wild oat [4]; [17],0
same,Wild oats plant response rating,wild oat [4]; [18],0
same,Wild oats plant response rating,wild oat [4]; [9],2
same,Wild oats plant response rating,wild oat [4]; [21],6
same,"Plant response rating, Wild oats",wild oat [4]; [19],6
same,"Plant response rating, Wild oats",wild oat [4]; [20],6
CCOC(Cn1c(=O)on(C(=O)N(c2ccccc2)C(C)C)c1=O)OCC [Compound 632],"Plant response rating, Crabgrass",crabgrass; [7],0
same,"Plant response rating, Crabgrass",crabgrass; [17],6
same,Crabgrass plant response rating,crabgrass; [18],8
same,Crabgrass plant response rating,crabgrass; [9],2
same,Crabgrass plant response rating,crabgrass; [21],7
same,"Plant response rating, Crabgrass",crabgrass; [19],8
same,"Plant response rating, Crabgrass",crabgrass; [20],9
same,"Plant response rating, Wheat",wheat; [7],0
same,"Plant response rating, Wheat",wheat; [17],0
same,Wheat plant response rating,wheat; [18],0
same,Wheat plant response rating,wheat; [9],0
same,Wheat plant response rating,wheat; [21],0
same,"Plant response rating, Wheat",wheat; [19],0
same,"Plant response rating, Wheat",wheat; [20],0
same,"Plant response rating, Cocklebur",cocklebur; [7],0
same,"Plant response rating, Cocklebur",cocklebur; [17],0
same,Cocklebur plant response rating,cocklebur; [18],0
same,"Plant response rating, Cocklebur",cocklebur; [22],0
same,Cocklebur plant response rating,cocklebur; [9],0
same,Cocklebur plant response rating,cocklebur; [21],0
same,"Plant response rating, Cocklebur",cocklebur; [19],0
same,"Plant response rating, Cocklebur",cocklebur; [20],0
same,"Plant response rating, Wild oats",wild oat [4]; [7],0
same,"Plant response rating, Wild oats",wild oat [4]; [17],0
same,Wild oats plant response rating,wild oat [4]; [18],0
same,Wild oats plant response rating,wild oat [4]; [9],0
same,Wild oats plant response rating,wild oat [4]; [21],2
same,"Plant response rating, Wild oats",wild oat [4]; [19],3
same,"Plant response rating, Wild oats",wild oat [4]; [20],3
CC(C)N(C(=O)n1oc(=O)n(CCC(=O)N(C)C)c1=O)c1ccccc1 [Compound 671],"Plant response rating, Crabgrass",crabgrass; [7],1
same,Crabgrass plant response rating,crabgrass; [17],1
same,Crabgrass plant response rating,crabgrass; [18],8
same,Crabgrass plant response rating,crabgrass; [23],4
same,"Plant response rating, Crabgrass",crabgrass; [21],8
same,"Plant response rating, Crabgrass",crabgrass; [19],8
same,"Plant response rating, Crabgrass",crabgrass; [20],9
same,Crabgrass plant response rating,crabgrass; [24],9
same,"Plant response rating, Wheat",wheat; [7],0
same,Wheat plant response rating,wheat; [17],0
same,Wheat plant response rating,wheat; [23],0
same,"Plant response rating, Wheat",wheat; [21],0
same,"Plant response rating, Wheat",wheat; [19],3
same,"Plant response rating, Wheat",wheat; [20],8
same,Wheat plant response rating,wheat; [24],6
same,"Plant response rating, Cocklebur",cocklebur; [7],0
same,Cocklebur plant response rating,cocklebur; [17],0
same,Cocklebur plant response rating,cocklebur; [18],0
same,Cocklebur plant response rating,cocklebur; [23],0
same,"Plant response rating, Cocklebur",cocklebur; [21],0
same,"Plant response rating, Cocklebur",cocklebur; [19],0
same,"Plant response rating, Cocklebur",cocklebur; [20],1
same,Cocklebur plant response rating,cocklebur; [24],1
same,"Plant response rating, Wild oats",wild oat [4]; [7],0
same,Wild oats plant response rating,wild oat [4]; [17],0
same,Wild oats plant response rating,wild oat [4]; [23],0
same,"Plant response rating, Wild oats",wild oat [4]; [21],0
same,"Plant response rating, Wild oats",wild oat [4]; [19],7
same,"Plant response rating, Wild oats",wild oat [4]; [20],5
same,Wild oats plant response rating,wild oat [4]; [24],0
